Results: patent US20150265682A1, “THERAPEUTIC METHODS AND COMPOSITIONS FOR TREATING DIABETES” (Orient Europharma Co., Ltd., priority 2014, published 2015)

How the values were obtained:
Type in all cases: in vivo, ICR mice
[1] = test system: normal, T1DM and T2DM mice; assay: Plasma insulin levels before and after treatment
Method: The 4-week-old male ICR mice were purchased from the Animal Center of the College of Medicine, National Taiwan University (Taipei, Taiwan) with delicate humane care. This animal study was conducted by following the University ethical guidelines and the ‘Guide for the Care and Use of Laboratory Animals’ published by the US National Institutes of Health (NIH publication no. 85-23, revised 1996). The animal experiments were approved by the Institutional Animal Care and Use Committee (IACUC) of the National Taiwan University (IACUC No. 20110073). Animals were housed in a room at the constant temperature, 22±1° C., with 12 hours light and dark cycles.
(§1) After three days of acclimatization, the mice had free access to a standard rodent chow (normal mice), a standard rodent chow after single […] streptozotocin (STZ) intraperitoneal injection (T1DM mice), and a fat-rich chow diet and fructose-sweetened water (T2DM mice) for 4 weeks. The induction of Type 1 DM was assessed and confirmed when the mice had plasma glucose levels ≧350 mgdL^−1, accompanied with polyuria, hyperphagia and decreased body weight. The induction Type 2 DM in the mice was assessed by measuring fasting plasma glucose levels and confirmed when plasma glucose level was ≧150 mgdL^−1 after the 4-week induction. The animals were assigned randomly into three groups, with seven animals in each group. In group I, the mice were treated with vehicle, 2% DMSO in normal saline, as the negative control. In group II, the mice were intraperitoneally treated with borapetoside A (0.1-10 mgkg^−1). In group Ill, the positive control, the mice received intraperitoneally metformin (300 mgkg^−1; Sigma Chemical Co., St. Louis, Mo., U.S.A.) or insulin (0.5 IUkg^−1; Insulin Actrapid® HM; Novo Nordisk, Denmark). In the acute study, mice under anesthesia received a single intraperitoneal administration of borapetoside A, negative control, or positive control. In the subacute study, mice received intraperitoneal administrations of borapetoside A, vehicle, or insulin twice a day for seven days.
(§2) Blood samples were collected from the orbital vascular plexus of the mice under anesthesia. Blood samples were then centrifuged at 13000 rpm for 5 min, and the plasma samples were collected and kept on ice prior to the assay. The plasma glucose concentration was measured by Glucose Kit Reagent (Biosystems S. A., Barcelona, Spain) following the manufacturer's instructions, and the insulin levels were estimated using mouse insulin ELISA kit (Mercodia AB, Uppsala, Sweden).

[2] = test system: normal mice and mice with type 2 DM; assay: Intraperitoneal glucose tolerance test (IPGTT)
Method: as §1, §2
The mice were maintained under anesthesia throughout the procedure. Glucose (2.0 gkg^−1) was administered intraperitoneally. Blood samples were collected from the orbital vascular plexus at 0, 30, 60, 120 min. The concentrations of the plasma glucose were measured, and the values of AUC were calculated accordantly.

[3] = test system: non-diabetic and T2DM mice; assay: Oral glucose tolerance test (OGTT) with borapetoside C; settings: 5 mg/kg
Method: This study was conducted following the University ethical guidelines on animal experimentation and complied with the Guide for the Care and Use of Laboratory Animals published by the US National Institutes of Health (NIH publication no. 85-23, revised 1996). The animal facility was well controlled for temperature (22±1° C.), and humidity (60±5%) and a 12 h/12 h light-dark cycle was maintained with access to food and water ad libitum. Four-week-old male ICR mice were acquired from BioLasco Taiwan Co., Ltd. and maintained at College of Medicine Experimental Animal Center, National Taiwan University. The study was conducted on 8-10 week-old male ICR mice.
(§3) T1DM mice were induced by a known method. In brief, an intraperitoneal injection of streptozotocin (STZ; Sigma Chemical Co.; St. Louis, Mo.) at 150 mg/kg was performed in mice that were fasted for 48 h. The induction of T1DM was assessed and confirmed when the mice had plasma glucose levels ≧350 mg/dL, accompanied with polyuria, hyperphagia and decreased body weight. The control mice group received an injection of vehicle and then carried out for 4 weeks. T2DM mice were induced by maintaining on a fat-rich chow diet and fructose-sweetened water for 4 weeks from the age of 4-5 weeks according to previous methods. The induction T2DM mice were assessed by measuring fasting plasma glucose levels and confirmed when plasma glucose level was ≧150 mg/dL after a 4-week induction.
(§4) Blood samples were collected from the orbital vascular plexus of mice under anesthesia with sodium pentobarbital (80 mg/kg, intraperitoneal, Sigma Chemical Co., St. Louis, Mo., USA). Blood samples were then centrifuged at 13000 rpm for 5 min, and the plasma was kept on ice prior to the assay. The plasma glucose concentration was measured using commercial kits following manufacturer's instructions (BioSystems S. A., Barcelona, Spain).
To perform OGTT, mice were fasted overnight, divided into 2 groups and then administered a vehicle control and 5 mg/kg borapetoside C. This was followed by administration of a glucose solution at 2 g/kg via tube feeding. Blood samples were withdrawn from the orbital vascular plexus at intervals of 30, 60, 120, and 150 min after glucose administration. For the ITT, mice were fasted for 3 h. Human insulin (Insulin Actrapid) HM; Novo Nordisk, Denmark) was injected intraperitoneally after an intraperitoneal administration of 0.1 mg/kg borapetoside C for 30 min. Blood samples were collected from the orbital vascular plexus at the timed intervals mentioned above.

[4] = test system: non-diabetic, T1DM and T2DM mice; assay: Plasma glucose after bolus intraperitoneal borapetoside C
Method: as §3, §4

## C[C@@]12C[C@@H](c3ccoc3)OC(=O)[C@@H]1C[C@@H]1OC(=O)[C@@]3(O)[C@@H](O[C@@H]4O[C@H](CO)[C@@H](O)[C@H](O)[C@H]4O)CC[C@@H]2[C@@]13C [Borapetoside A, borapetoside A]
[1]; Normal mice, 0.1 mg kg^−1 group
  Plasma insulin Before-treatment: 61.0 ± 4.6 pmol/L
[1]; Normal mice, 0.1 mg kg^−1 i.p.
  Plasma insulin After-treatment: 68.3 ± 4.4 pmol/L
[1]; Normal mice, 0.3 mg kg^−1 group
  Plasma insulin Before-treatment: 63.4 ± 3.9 pmol/L
[1]; Normal mice, 0.3 mg kg^−1 i.p.
  Plasma insulin After-treatment: 129.4 ± 22.0 pmol/L
[1]; Normal mice, 1 mg kg^−1 group
  Plasma insulin Before-treatment: 66.1 ± 5.4 pmol/L
[1]; Normal mice, 1 mg kg^−1 i.p.
  Plasma insulin After-treatment: 118.8 ± 10.1 pmol/L
[1]; Normal mice, 3 mg kg^−1 group
  Plasma insulin Before-treatment: 64.4 ± 3.6 pmol/L
[1]; Normal mice, 3 mg kg^−1 i.p.
  Plasma insulin After-treatment: 121.2 ± 14.2 pmol/L
[1]; Normal mice, 10 mg kg^−1 group
  Plasma insulin Before-treatment: 68.9 ± 1.3 pmol/L
[1]; Normal mice, 10 mg kg^−1 i.p.
  Plasma insulin After-treatment: 108.2 ± 2.9 pmol/L
[1]; T1DM mice, 0.1 mg kg^−1 group
  Plasma insulin Before-treatment: 22.9 ± 0.1 pmol/L
[1]; T1DM mice, 0.1 mg kg^−1 i.p.
  Plasma insulin After-treatment: 22.7 ± 0.2 pmol/L
[1]; T1DM mice, 0.3 mg kg^−1 group
  Plasma insulin Before-treatment: 22.9 ± 0.1 pmol/L
[1]; T1DM mice, 0.3 mg kg^−1 i.p.
  Plasma insulin After-treatment: 22.7 ± 0.3 pmol/L
[1]; T1DM mice, 1 mg kg^−1 group
  Plasma insulin Before-treatment: 23.1 ± 0.2 pmol/L
[1]; T1DM mice, 1 mg kg^−1 i.p.
  Plasma insulin After-treatment: 23.0 ± 0.2 pmol/L
[1]; T1DM mice, 3 mg kg^−1 group
  Plasma insulin Before-treatment: 23.1 ± 0.2 pmol/L
[1]; T1DM mice, 3 mg kg^−1 i.p.
  Plasma insulin After-treatment: 23.0 ± 0.0 pmol/L
[1]; T1DM mice, 10 mg kg^−1 group
  Plasma insulin Before-treatment: 23.1 ± 0.1 pmol/L
[1]; T1DM mice, 10 mg kg^−1 i.p.
  Plasma insulin After-treatment: 23.0 ± 0.1 pmol/L
[1]; T2DM mice, 0.1 mg kg^−1 group
  Plasma insulin Before-treatment: 140.5 ± 4.1 pmol/L
[1]; T2DM mice, 0.1 mg kg^−1 i.p.
  Plasma insulin After-treatment: 134.5 ± 9.3 pmol/L
[1]; T2DM mice, 0.3 mg kg^−1 group
  Plasma insulin Before-treatment: 133.0 ± 4.2 pmol/L
[1]; T2DM mice, 0.3 mg kg^−1 i.p.
  Plasma insulin After-treatment: 149.0 ± 9.5 pmol/L
[1]; T2DM mice, 1 mg kg^−1 group
  Plasma insulin Before-treatment: 126.8 ± 5.7 pmol/L
[1]; T2DM mice, 1 mg kg^−1 i.p.
  Plasma insulin After-treatment: 123.7 ± 9.6 pmol/L
[1]; T2DM mice, 3 mg kg^−1 group
  Plasma insulin Before-treatment: 138.3 ± 3.6 pmol/L
[1]; T2DM mice, 3 mg kg^−1 i.p.
  Plasma insulin After-treatment: 184.3 ± 14.6 pmol/L
[1]; T2DM mice, 10 mg kg^−1 group
  Plasma insulin Before-treatment: 134.9 ± 3.5 pmol/L
[1]; T2DM mice, 10 mg kg^−1 i.p.
  Plasma insulin After-treatment: 205.3 ± 22.2 pmol/L
[2]; normal and type 2 DM mice, borapetoside A 0.1, 1 and 10 mgkg^−1, metformin
  increase of plasma glucose level at 30 min in IPGTT, compared to the vehicle group: significantly suppressed
[2]; normal mice, 0.1 mgkg^−1
  area under the curve (AUC) in IPGTT: 78.8±3.0 % of vehicle control
[2]; normal mice, 1 mgkg^−1
  area under the curve (AUC) in IPGTT: 69.9±7.1 % of vehicle control
[2]; normal mice, 10 mgkg^−1
  area under the curve (AUC) in IPGTT: 68.9±3.5 % of vehicle control
[2]; type 2 DM bearing mice, 0.1 mgkg^−1
  area under the curve (AUC) in IPGTT: 74.9±4.5 % of vehicle control
[2]; type 2 DM bearing mice, 1 mgkg^−1
  area under the curve (AUC) in IPGTT: 71.1±3.2 % of vehicle control
[2]; type 2 DM bearing mice, 10 mgkg^−1
  area under the curve (AUC) in IPGTT: 68.9±1.9 % of vehicle control

## COC(=O)C1=CCC[C@H]2[C@]3(C)C[C@@H](c4ccoc4)OC(=O)[C@@H]3C[C@@H](O[C@@H]3O[C@H](CO)[C@@H](O)[C@H](O)[C@H]3O)[C@@]12C [Borapetoside C, borapetoside C]
[3]; T2DM mice
  basal plasma glucose concentration in OGTT: 206.8 ± 19.0 mg/dL
  decrease of area under the curve (AUC) in OGTT vs vehicle-treated group: 16%
  plasma glucose levels at 60, 120 and 150 min vs vehicle-treated mice: significantly lower
[3]; T2DM mice, glucose 2 g/kg
  plasma glucose concentration sixty min after oral glucose administration: 338.2 ± 24.5 mg/dL
[3]; non-diabetic mice
  basal plasma glucose concentration in OGTT: 115 ± 3.5 mg/dL
  plasma glucose levels at 120 min and 150 min vs vehicle-treated mice: significantly lower
[3]; non-diabetic mice, glucose 2 g/kg
  plasma glucose concentration at 60 min after oral administration of glucose: 312.8 ± 21.3 mg/dL
[3]; normal mice
  decrease of area under the curve (AUC) in OGTT vs vehicle-treated group: 22%
[4]; bolus i.p. 0.5 to 5 mg/kg, non-diabetic, T1DM and T2DM mice
  plasma glucose concentrations: significantly lowered plasma glucose concentrations in a dose-dependent manner
[4]; borapetoside C at 0.1 mg/kg alone
  plasma glucose levels: did not alter the plasma glucose levels
